Earlier results in patent US20220016082A1, “COMBINATION THERAPIES FOR HIGH AND VERY HIGH RISK MDS” (MEI Pharma, Inc., priority 2018, published 2022).

Columns and labels:
[1] = test system: Higher-Risk Myelodysplastic Syndromes and Chronic Myelomonocytic Leukemia; conditions: arms N = 92 / 93 / 92; total N = 277
MDS = conditions: N = 179

**Q.** Which “CR (of CR/PR/HI)” value [1] does the source give for `Nc1ncn([C@@H]2O[C@H](CO)[C@@H](O)[C@H]2O)c(=O)n1` [AZA Monotherapy, 5-azacytidine] here?
**A.** 24%

**Q.** What about the “HI (of CR/PR/HI)” value [1] of the same compound?
**A.** 14%

**Q.** And the “Marrow CR” value [1]?
**A.** 12%

**Q.** And the “ORR = CR + PR + mCR” value [1]?
**A.** 38%

**Q.** And the “PR (of CR/PR/HI)” value [1]?
**A.** 0%

**Q.** And the “CR (of CR + PR)” value (MDS)?
**A.** 17%

**Q.** And the “CR + PR” value (MDS)?
**A.** 29%

**Q.** What about the HI (MDS) of the same compound?
**A.** 49%

**Q.** And the “PR (of CR + PR)” value (MDS)?
**A.** 12%
